Test results as given in US9417257B2, “System and method for collecting, storing, processing, transmitting and presenting very low amplitude signals” (Nativis, Inc., priority 2004, dated 2016).
Where a SMILES comes first, the peptide text is derived from it. [ ]: non-standard residue; d: D form. Nle = CCCC[C@H](N)C(=O)O

Columns and labels:
[1] = tested on: araC-PBAD promoter dependent expression of GFPuv; test: Induction of araC-PBAD GFPuv reporter in pBAD-GFPuv transformed JM109 bacteria, whole cell fluorescence; type: cell-based, E coli; conditions: MIDS = signal playback
Excerpt: The reporter system for sugar sensing was obtained from a commercial supplier. In this system, bacteria are transformed with a plasmid that consists of the gene for AraC, which acts as an activator of the ara operon, and the gene for a variant green florescent protein, under the control of the PBAD promoter. L-arabinose specifically binds to araC and rapidly turns on transcription in a time dependent fashion reaching a maximum expression level within 3 hr as monitored by intact whole cell fluorescence of the expressed GFP. GFPuv expression is linear with dose over two logs of concentration of L-arabinose (1-500 uM).
The inherent (MIDS) emission signals of L and D-arabinose are obtained as detailed above, employing a 0.1 mM solution of L(+) Ara or D(+) Ara for signal recording, and the autocorrelation/FFT method for identifying optimized time-domain signals.
Transduction experiments were performed with two sets of coils. In the first system, a pair of coils consisting of 30 gauge aluminum wire was wound around a 3″ tall section of PVC core with 2⅝″ o.d., wound to 35× the number of windings of starting coils. These were place inside aluminum Faraday boxes 5½×4″×8¾″ (W×H×D) to isolate samples for crossover RF signals. Both boxes were placed upon the orbital shaker platform to aerate transducing cultures.
In the second set of three 4″ tall stock 4000-ft spools of 28G insulated copper wired with 1″ i.d. plastic cores were directly used as transduction coils (“Mega coils”) and two coils were driven with the MIDS signals, while the third control coil was driven by a random white noise generator. In this case, all three coils were isolated in Faraday boxes, and mounted separated by 2 ft on a 6-ft plank that was fitted to the orbital shaker. This ensured that all three samples were agitated at the same speed with one shaker. Thermistor temperature probes were also place into the core of each coil proximal to the sample to provide real-time reading of temperature. Both sets of MIDS signal coils were driven at the highest input voltage setting until their temperature equilibrated near 94-97° F. from resistive heating of the wound wire. Samples were centered in the core of the coil to experience the maximum and most uniform area of RF flux. (a limitation of the current set-up was the linkage of heating with driving voltages which control RF flux).
In a typical experiment, 1-3 drops of overnight cultures of pBAD-GFPuv transformed JM109 grown in Luria broth containing 100-500 ug/ml of sodium ampicillin (LB/amp) were used to seed 50 ml fresh LB/amp. This was well mixed and 10 ml transferred to 25-ml Erlenmeyer flasks, and 0.1 ml of 100× stocks of reference chemical inducers (D or L arabinose) were added to final concentrations desired. These seeded cultures were placed into either the transduction coils, or left on the shaker platform as controls. (Another limitation of the current set up is the availability of only one shaker table, forcing a choice between incubation at controlled above ambient temperature to match the coils but without agitation, or agitation simply at ambient temperature. Also the matching of the coil temperatures varies about 2-3° F. and cannot be precisely controlled or determined). In most cases the transductions were conducted as overnight incubations.
After transduction was stopped, 1.2 ml of bacterial cell culture suspension were transferred to 1.7 ml microcentrifuge tubes and centrifuge 1-2 mins at 12,000 rpm (10,000×rcg). Supernatant broth was removed, discarded and the bacterial pellets re-suspended in 1 ml of ice-cold PBS. Washed suspensions were centrifuged again, PBS wash discarded, pellets re-suspended in fresh PBS, transferred to cuvettes to measure OD600 nm, then volumes were adjusted to match cell density among samples.
For each of the studies reported here, % Relative=[(Fluor. of L(+)ara MIDS)−(Fluor. of D(−)ara MIDS)]
Induction (Fluor. of D(−) ara MIDS).

[2] = tested on: araC-PBAD promoter dependent expression of GFPuv; conditions: cited from earlier work
pea sprouts = test: Sugar pea sprout stem length, inhibition by herbicide; type: in vivo; conditions: 72 hour, 37° C., 100% humidity; FIG. 31
Method: The optimized inherent (MIDS) emission signals of glyphosphate were obtained as described in Sections II and III above, using system equipment and protocols as detailed in Examples 1 and 2 below. In one experiment, an optimized glyphosphate MIDS signal was applied to pea sprouts supported on a moist medium, with signal application over a 72 hour period at 37° C., 100% humidity. Various controls included (1) no signal, (2), the chemical Roundup®, and (3) a white noise signal. Stem length was measured within a hour after exposure to the stimulus, and 5-50 sprouts were contained in each group.

[3] = tested on: MDA-MB-435 human breast tumor; test: MDA-MB-435 human breast tumor mouse xenograft; type: in vivo, athymic nude mice; conditions: day 36; outliers removed; taxol 15 mg/kg i.p. twice a wk; MIDS continuous playback
Method: Method: MIDS measurement was made in glass sample holders (Kimble autoinjector vials) on (1) neat solution of the preformulated taxol clinical vial, using a 1 ml tuberculin syringe, and 22G needle, to withdraw 0.7 ml from multidose vial (preserve sterility and integrity of solution, so don't syringe back in), then (2) this 0.7 ml taxol formulation will be used to dissolve additional 1 mg vials of taxol, to increase the amount of taxol relative to Cremophor®. The study was designed to evaluate the efficacy of a transduction technology to inhibit tumor growth in an in vivo human tumor mouse xenograft model, and to compare its effect to a standard chemotherapeutic treatment-taxol. 5 million MDA-MB-435 cells, in suspension, were subcutaneously injected into the flanks of athymic nude mice. Treatment began the same day of cell implant (Day 1). Animals were assigned to one of 4 groups. Each animal was monitored for tumor growth twice per week for the duration of the study. One group was treated with Taxol, Two groups were treated with transduction and one group was treated with the taxol vehicle to act as a control.
The mice were athymic nude mice nu/nu with a BALB/c background. Implanted with 5 million of breast cancer tumor line MDA-MB-435(NCI standard originally from the NCI) from American Culture Type Collection, ATCC (Rockville, Md.). […]

20S proteasome = molecular target: T1, 20S proteasome (Homo sapiens, UniProt P28074); test: 20S proteasome assay, cleavage of Suc-Leu-Leu-Val-Tyr-AMC (fluorescence); type: biochemical
T1 construct: purchased EMD Biosciences 539158
Excerpt: The 20S proteasome enzyme is activated with a mild detergent (SDS). The cleavage of the substrate Suc-Leu-Leu-Val-Tyr-AMC by the activated enzyme liberates the fluorescent AMC molecules that can be monitored by exciting AMC at 380 nm and detecting the fluorescence at 460 nm. Proteosome activity is inhibited by phepropeptin D.
In a first study, the ability of phepropeptin D and a MIDS signal of phepropeptin D to inhibit proteosome activity, as measured by the appearance of conversion of the substrate Suc-Leu-Leu-Val-Tyr-AMC to yield a fluorescent signal were measured, following substantially the same methodology described above and in the examples.
The 20S Proteasome assay kit (EMD Biosciences Cat #539158) was adapted for use in a cuvette format with a final volume of 200 μl. Nine samples were set-up using the following procedure:
Reaction buffer (20×) was diluted, 100 μl with 880 μl of HPLC grade water and 20 μl of 100× activation buffer to a final volume of 1 ml.
100 μl of the diluted 2× reaction buffer was added to each of the no enzyme control tubes.
The 20S proteasome enzyme was added to the remaining solution, 3.2 μl to 800 μl of 2× reaction buffer and 100 μl added to each of 7 remaining tubes.
To each tube 100 μl of water or water and inhibitor were added.
In a separate tube 4 μl of the substrate was diluted with 96 μl of HPLC grade water and 10 μl/tube of the diluted substrate was added to each of the reaction tubes to obtain a final volume of 200 μl.
Samples were all mixed by repeated pipetting and the reactions incubated at 37 C for 2 hrs.
Fluorescence was quantiated and recorded using a fluorometer (Turner Designs, Sunnyvale, Calif.—Model TD-700).
In a follow-up study, samples were allowed to incubate at room temperature overnight to determine if the substrate would continue to be converted to the fluorescent product. […]

[4] = Experiment 1, OD-matched cells, L(+) Ara 0.2 mM, D(−) Ara 1 mM
[5] = Experiment 2, L(+) ara 0.25 mM, D(−) ara 1 mM

Structure (SMILES)	Fluorescence Average rfu [1, 4] [rfu]	Fluorescence rfu1 [1, 4] [rfu]	Fluorescence rfu2 [1, 4] [rfu]	Fluorescence rfu3 [1, 4] [rfu]	Fluorescence Average rfu [1, 5] [rfu]	Fluorescence rfu1 [1, 5] [rfu]	Fluorescence rfu2 [1, 5] [rfu]	Fluorescence rfu3 [1, 5] [rfu]	further results
O=C[C@H](O)[C@@H](O)[C@@H](O)CO [L(+) Ara, L(+)-arabinose]	833.5	835.0	832.7	832.7	939.7	940.0	939.4	939.7	concentration range over which GFPuv expression is linear with dose [2]: 1 to 500 µM; potency [2]: 100 µM; time to maximum expression level of GFP ([2]; whole cell fluorescence): ≤ 3 h
O=C[C@@H](O)[C@H](O)[C@H](O)CO [D(−) Ara, D(−)-arabinose]	297.7	297.6	297.8	297.7	226.5	226.7	226.7	226.1	binding of araC and activation of genes downstream of the PBAD promoter (in words) ([2]; even at 1000-fold higher concentration than L-arabinose): does not bind araC, nor activate expression of genes downstream of the PBAD promoter
O=C(O)CNCP(=O)(O)O [glyphosphate, N-phosphonomethylglycine]									stem growth (in words) (pea sprouts): effective in substabtially inhibited stem growth
CC(=O)O[C@H]1C(=O)[C@@]2(C)[C@H]([C@H](OC(=O)c3ccccc3)[C@]3(O)C[C@H](OC(=O)[C@H](O)[C@@H](NC(=O)c4ccccc4)c4ccccc4)C(C)=C1C3(C)C)[C@]1(OC(C)=O)CO[C@@H]1C[C@@H]2O [taxol]									tumor growth inhibition [3]: 43%
CCCC[C@@H](C=O)NC(=O)[C@H](CC(C)C)NC(=O)[C@H](CC(C)C)NC(C)=O [ALLN] (Ac-Leu-Leu-[Nle]-aldehyde)									Fluorescence relative to positive control sample #2 set to 700 (20S proteasome; 37 C, 2 hrs, MIDS 60 mG AC field): 25.83; % Normalized Fluorescence (20S proteasome; 1 hr 30 min): 4.975%; % Normalized Fluorescence (20S proteasome; 20 hrs post, room temperature overnight, removed from the field): 2.646%
